Test results taken from patent US12433877B2, “Sustained release drug delivery systems and related methods” (Durect Corporation, priority 2021, dated 2025).
Values joined by “and” are separate entries in the source; they are usually repeats but may differ in a detail not shown here. Equal values may be shown once. Values belong to the compound of their own block, whether it stands above or below them.

Legend:
[1] = Example 14: peroxide content of SAIB / benzyl alcohol versus bupivacaine N-oxide; type: physicochemical
Protocol: Placebo compositions were composed of 75% w/w sucrose acetate isobutyrate (SAIB), and 25% w/w benzyl alcohol. Bupivacaine N-oxide in the sustained release bupivacaine compositions can be formed by an oxidative reaction between bupivacaine and peroxides.
The peroxide content for several lots of sucrose acetate isobutyrate were determined by potentiometric titration involving iodometric titration. The bupivacaine N-oxide levels in samples of Formulation A were determined using HPLC with UV detection.
All of the benzyl alcohol compositions had peroxide values of less than […]. The peroxide value can be converted to peroxide content, expressed as hydrogen peroxide, by multiplying PV by 17. […] The maximum contribution to peroxide content from benzyl alcohol is 85 ppm divided by 3, or 28 ppm.

[2] = Example 9: 2,6-dimethylaniline standard in different color glassware, electrochemical detection; type: physicochemical; details: for Observed Concentration of Standard: prepared at 3 ng/mL
Protocol: For analysis, an aliquot of formulation was diluted 250 times with an aqueous buffer/methanol/acetonitrile diluent. After solubilization of the sample, a small aliquot is transferred into an HPLC vial for analysis using an electrochemical detector.
A series of experiments was conducted examining the effects of amber and red colored glassware on the stability of the 2,6-dimethylaniniline reference standard, using electrochemical detection, at a concentration of 3 ng/mL in an aqueous buffer/methanol solution.
In Experiment 1, the 2,6-dimethylaniline was prepared at a concentration of 3 ng/mL in a clear, colorless glass 100 mL volumetric flask. Aliquots were transferred into clear HPLC glass vials, and assayed against external standards. The 3 injections of the 2,6-dimethylaniline were consistently near 3 ng/mL.
In Experiment 2, the 2,6-dimethylaniline solution at 3 ng/mL prepared in a clear, colorless glass 100 mL volumetric flask was transferred to amber HPLC vials.
An aliquot was transferred into a clear HPLC glass vial, and assayed against external standards. The sample injection had the same 2,6-dimethylaniline concentration value as that in Experiment 1.
In Experiment 4, the 2,6-dimethylaniline solution at 3 ng/mL prepared in the red colored glass 100 mL volumetric flask coated with RAY-SORB® was transferred to an amber HPLC vial.

[3] = Example 11: metal content by ICP-MS; type: physicochemical
Protocol: Sucrose acetate isobutyrate was tested for metal content as follows. The sample was prepared with a 0.1 g weighed portion mixed with 2 mL nitric acid and 0.5 mL hydrochloric acid for 1 hour on a block digestor set at 110° C. After cooling, 0.5 mL of 30% hydrogen peroxide was added, and the digestion resumed for 30 minutes (the material appeared dissolved). After cooling, internal standard solution was added and dilution with purified water to 20 g produced a solution for ICP-MS analysis. The results are shown below:
Formulation A was compounded using steel compounding tanks. Silicone tubing was used to transfer Formulation A. Formulation A was filled into glass vials, which were then sealed with fluorocarbon-coated stoppers.
Formulation A was tested for metal content as follows. The sample was prepared with a 0.2 g weighed portion mixed with 2 mL nitric acid, 1 mL hydrochloric acid, and 1 mL hydrofluoric acid, then digested in a closed-vessel microwave system (the material appeared dissolved). After cooling, internal standard solution was added and dilution with purified water to 50 g produced a solution for ICP-MS analysis.

[4] = Example 16: in vitro cumulative release of bupivacaine (USP Apparatus II); type: physicochemical; details: oven at 225° C. for 4 hours
Excerpt: To compare dissolution profiles, formulations having 12% w/w bupivacaine but differing ratios of sucrose acetate isobutyrate (SAIB)/solvent were made and tested as described in the below Methods and Materials. Table 16.1 is a summary of the compositions of the formulations tested.
To compare dissolution profiles, formulations having 12% w/w bupivacaine but differing ratios of sucrose acetate isobutyrate (SAIB)/solvent were made and tested as described below. Table 16.3 is a summary of the compositions of the formulations tested.
To compare dissolution profiles, a control formulation and a heat-stressed SAIB formulation were made and tested as described the below Methods and Materials. Both the control and heat-stressed SAIB formulations nominally consisted of 12% w/w bupivacaine, 22% w/w benzyl alcohol, and 66% w/w SAIB.
The bupivacaine formulations, other than the heat-stressed formulation, were prepared by dissolving appropriate amounts of bupivacaine in appropriate amounts of benzyl alcohol (BA), adding an appropriate amount of sucrose acetate isobutyrate (SAIB), and stirring not less than 45 minutes at about 35° C. For the heat-stressed SAIB formulation, the same process was followed except the SAIB was pre-heated in an oven at 225° C. for 4 hours before use. […]
Dissolution was measured using a USP Apparatus II. […]

[5] = test system: patients undergoing elective arthroscopic shoulder surgery; assay: Example 1 / Study 1: pain intensity and opioid rescue after arthroscopic shoulder surgery; type: in vivo, human; details: 0-72 hours after surgery; ITT
clinical [6] = details: human, in vivo
Protocol: Additionally, alpha 1 acid glycoprotein (AAG) plasma concentrations were measured in these two groups for correlation with free bupivacaine concentrations.
Using non-compartmental methods the following PK parameters were calculated from the plasma concentrations of each compound: area under the plasma concentration vs. time curve until the last measured concentration (AUCt), area under the plasma concentration vs. time curve extrapolated until infinity (AUCinf), the maximum concentration (Cmax), the time of its occurrence (tmax) and the apparent terminal elimination half-life (t1/2). […] The average […] of bupivacaine was approximately 5.2%; free bupivacaine plasma concentrations generally paralleled those of total bupivacaine. There was a large interindividual variability of Cmax of both total and free bupivacaine. […] Note: Table 1.5 presents Geometric mean, ±68th percentile for Cmax rather than absolute min,max.

pregnant rabbits = assay: Embryo-fetal development study, subcutaneous, rabbits; type: in vivo; details: pregnant rabbits, subcutaneous; MRHD 660 mg
Protocol: (§1) There are no studies conducted with Formulation A in pregnant women. […] Based on animal data, advise pregnant women of the potential risks to a fetus. [see Data]
Bupivacaine hydrochloride was administered subcutaneously to rats at doses of 4.4, 13.3, & 40 mg/kg and to rabbits at doses of 1.3, 5.8, & 22.2 mg/kg during the period of organogenesis (implantation to closure of the hard palate). The high doses are approximately 0.6 times the daily maximum recommended human dose (MRHD) of 660 mg/day on a mg/m^2 body surface area (BSA) basis.

rats = assay: Rat pre- and post-natal development study; type: in vivo; details: rat; MRHD 660 mg
Protocol: as §1
The high dose is approximately 0.6 times the daily MRHD of 660 mg/day on a BSA basis.

[7] = test system: bacterial reverse mutation; assay: In vitro bacterial reverse mutation assay (Ames assay); type: cell-based
Excerpt: (§2) Bupivacaine was negative in the in vitro bacterial reverse mutation assay (Ames assay), the in vitro chromosomal aberration assay (human peripheral blood lymphocytes, and the in vivo rat micronucleus assay.

[8] = test system: human peripheral blood lymphocytes; assay: In vitro chromosomal aberration assay; type: cell-based
Excerpt: as §2

rat micronucleus = assay: In vivo rat micronucleus assay
Excerpt: as §2

clinical [9] = details: human, in vivo; remark: listed apart in the source
Excerpt: Both bupivacaine and benzyl alcohol have been reported to be excreted in human milk.
Bupivacaine appears to cross the placenta by passive diffusion. The rate and degree of diffusion is governed by (1) the degree of plasma protein binding, (2) the degree of ionization, and (3) the degree of lipid solubility. Fetal/maternal ratios of local anesthetics appear to be inversely related to the degree of plasma protein binding, because only the free, unbound drug is available for placental transfer. Bupivacaine with a high protein binding capacity (95%) has a low fetal/maternal ratio (0.2 to 0.4). The extent of placental transfer is also determined by the degree of ionization and lipid solubility of the drug. Lipid soluble, non-ionized drugs such as bupivacaine readily enter the fetal blood from the maternal circulation.
The kidney is the main excretory organ for most local anesthetics and their metabolites. Urinary excretion is affected by urinary perfusion and factors affecting urinary pH. Only 6% of bupivacaine is excreted unchanged in the urine.

[10] = cited from earlier work

Peroxide content, expressed as hydrogen peroxide ([1]; PV multiplied by 17): < 8.5 ppm
Peroxide value (PV) ([1]; all lots): less than 0.5
Effective peroxide contribution to formation of bupivacaine N-oxide ([1]; divided by 3): < 2.8 ppm
Compound: OCc1ccccc1 [benzyl alcohol]

Compound: Cc1cccc(C)c1N [2,6-Dimethlylaniline Standard]
Observed Concentration of Standard ([2]; Experiment 1, Clear volumetric flask, Clear HPLC vial): 3.0 ng/mL and 3.1 ng/mL
Observed Concentration of Standard ([2]; Experiment 2, Clear volumetric flask, Amber HPLC vial): 24.5 ng/mL and 28.4 ng/mL and 34.6 ng/mL and 38.1 ng/mL
Observed Concentration of Standard ([2]; Experiment 3, Red volumetric flask, Clear HPLC vial): 3.0 ng/mL
Observed Concentration of Standard ([2]; Experiment 4, Red volumetric flask, Amber HPLC vial): 14.9 ng/mL

Gold ([3]; Detection Limit 0.02): 0.4 ppm
Tin ([3]; Detection Limit 0.04): 0.0 ppm
Iron ([3]; Detection Limit 1): 2 ppm
Peroxide content in SAIB corresponding to 0.8% bupivacaine N-oxide ([1]; linear regression, FIG. 14): 232.5 ppm
Peroxide in SAIB corresponding to the 1.0% specification limit for bupivacaine N-oxide ([1]; linear regression, FIG. 14): 296.4 ppm
SAIB remaining after pre-heating [4]: 98%
Compound: sucrose acetate isobutyrate [SAIB]

Compound: CCCCN1CCCCC1C(=O)Nc1c(C)cccc1C (centres unmarked) [Bupivacaine, 1-butyl-N-(2,6-dimethylphenyl)-2-piperidinecarboxamide]
Total IV morphine equivalent dose of opioid rescue medication, median [5]: 8 mg
fraction unbound (clinical [6]): ~0.052
Dose with embryo-fetal lethality (pregnant rabbits): 0.6 times the maximum recommended human dose
Dose with decreased pup survival (rats): 0.6 times the maximum recommended human dose
Bacterial reverse mutation assay (Ames assay) result [7]: negative
Chromosomal aberration assay result [8]: negative
Rat micronucleus assay result (rat micronucleus): negative
Cmax (clinical [9]): 2850 ng/mL
Excreted unchanged in the urine ([10]; human, in vivo): 6%
Protein binding capacity ([10]; plasma): 95%

Compound: Cc1cccc(C)c1N [2,6-dimethylaniline]
2,6-dimethylaniline concentration found ([2]; Experiment 1: clear flask, clear HPLC vials, 3 ng/mL prepared): ~3 ng/mL
2,6-dimethylaniline concentration relative to Experiment 1 ([2]; Experiment 3: red RAY-SORB flask, clear HPLC vial): same
2,6-dimethylaniline content relative to Experiments 1 and 3 ([2]; Experiment 4: red RAY-SORB flask, amber HPLC vial): approximately 5 times higher
